The numbers were not newly measured in US20260256768A1, “DRY POWDER COMPOSITIONS OF BEDAQUILINE AND SALTS AND METHODS OF USE THEREOF” (Insmed Incorporated, priority 2022, published 2026), which cites them from elsewhere.

One data set concerns lung tumor. To be noted: animal model.
The subject of data set [1] is non-small cell lung cancer cell lines. To be noted: two non-small cell lung cancer cell lines.
Data set [2] deals with MCF7 breast cancer cells-derived cancer stem-like cells.
In a further data set the test system is cancer metastasis. To be noted: in vivo.

For `COc1nc2ccc(Br)cc2cc1[C@@H](c1ccccc1)[C@@](O)(CCN(C)C)c1cccc2ccccc12` [bedaquiline, (1R,2S)-1-(6-bromo-2-methoxyquinolin-3-yl)-4-(dimethylamino)-2-naphthalen-1-yl-1-phenylbutan-2-ol], the “effect on lung tumor growth and angiogenesis” value in the data set on lung tumor is “inhibit lung tumor growth and angiogenesis”. Besides, the cytotoxicity entry in data set [1] is recorded as “cytotoxic properties”. For the same compound, the “effect on propagation and expansion of cancer stem-like cells” value in data set [2] was “block the propagation and expansion”. The “effect on cancer metastasis” value in the data set with cancer metastasis is reported as “inhibit cancer metastasis”.
